The text below walks through data of US11325905B2, “Imidopiperidine compounds as inhibitors of human polynucleotide kinase phosphatase” (THE GOVERNORS OF THE UNIVERSITY OF ALBERTA, priority 2017, dated 2022).

For data set [1], the system named is limited panel of phosphatase enzymes. The settings on record: cited from earlier work.
In data set [2] the test system is human A549 lung carcinoma cells. To be noted: non-toxic doses; cited from earlier work.
For data set [3], the system named is radioresistant prostate cancer cells. The settings on record: cited from earlier work.
Data set [4] deals with MDA-MB-231 breast cancer cells. To be noted: non-toxic doses; cited from earlier work.
Data set [5] has as its system cells in which PNKP expression was down-regulated by shRNA. The settings on record: cited from earlier work.
For data set [6] the following is noted: concentrations of 5-10 μM; cited from earlier work.
In data set [7] the target is T1, PNKP (Homo sapiens (Human), UniProt Q96T60). In words: Binding affinity (Kd) by steady-state fluorescence spectroscopy, protein tryptophan fluorescence quenching. The protocol:
(§1) We chose to first rate and compare the analogues using a single-point measurement at 20 μM concentration. […] Only the top-rated analogues were further evaluated with an IC50 and a dissociation constant (Kd) determination.
Freschauf, G. K., Mani, R. S., Mereniuk, T. R., Fanta, M., Virgen, C. A., Dianov, G. L., Grassot, J. M., Hall, D. G., and Weinfeld, M. Mechanism of action of an imido-piperidine inhibitor of human polynucleotide kinase/phosphatase.

A further data set concerns the target murine PNKP (Mus musculus (Mouse), UniProt Q9JLV6). The settings on record: compared with human PNKP; cited from earlier work.
Data set [8] deals with T1, PNKP. To be noted: intrinsic (tryptophan) fluorescence quenching titration, earlier publication; read-out: dissociation constant (Kd); cited from earlier work.
Data set [9] deals with T1, PNKP. In words: Universal molecular beacon (U-MB) fluorescence assay of PNKP phosphatase activity, IC50. It is filed as biochemical. On the procedure: as §1
The test system of another data set is myeloid leukemia cells. The settings on record: cited from earlier work.
A short description of another data set: Solubility. The data set is classed as physicochemical.
The next data set concerns HCT116 PTEN−/− cells. In words: Clonogenic survival assay, synthetic lethality. The data set is classed as cell-based, human. The protocol: (§2) Cells, seeded in 60-mm dishes 24 hours in advance, were treated with PNKP inhibitors for 9-14 consecutive days at nontoxic concentrations. Colonies were then stained with a crystal violet (Sigma, Oakville, ON, CA) stain containing 25% methanol for 30 min, after which the plates were washed in warm water and left to dry overnight. Colonies consisting of 50 cells or more were counted using an automated colony counter (Oxford Optronix, Abingdon, UK).
(§3) To investigate whether the new encapsulated PNKP 3′-phosphatase inhibitors could induce a synthetic lethal response in PTEN-deficient cells, we performed clonogenic survival assays with both HCT116 PTEN+/+ and HCT116 PTEN−/− cells. […] However, the disruption of PNKP (chemically by inhibitors) or PTEN (genetically) individually was not lethal. These findings confirm our previous observation that a synthetic lethal relationship exists between PTEN and PNKP.

In a further data set the test system is HCT116 PTEN+/+ cells. Briefly: Clonogenic survival assay, PTEN wild-type control cells. The data set is classed as cell-based. To be noted: encapsulated, 9-14 days. On the procedure:
as §2, §3

The test system of data set [10] is HCT116 cells. In words: MTS cell proliferation assay. It is filed as cell-based, human. The settings on record: for usable concentration in clonogenic survival assays (not affecting cell growth): 72 h MTS. On the procedure: Free inhibitor was dissolved in DMSO in a way to keep the final concentration of DMSO<1%. After 72 h, 11 μL of the pre-mixed optimized dye solution (tetrazolium dye) was added to each well and cells were incubated for 4 more hours at 37° C. The absorbance recorded at 490 nm on a FLUOstar Optima® plate reader (BMG Labtech Inc., Durham, N.C.) was used as a representation of the relative number of metabolically active cells in the culture.

The test system of data set [11] is HCT116 cells. In words: Clonogenic survival assay, radio/chemosensitization. The data set is classed as cell-based, human. The protocol: (§4) Cells, seeded in 60-mm dishes 24 hours in advance, were treated with PNKP inhibitors for 9-14 consecutive days at nontoxic concentrations. […] Colonies consisting of 50 cells or more were counted using an automated colony counter (Oxford Optronix, Abingdon, UK).

Data set [12] in a line: In vitro release of PNKP inhibitors by dialysis method. It is filed as physicochemical. On the procedure:
The in vitro release of encapsulated PNKP inhibitors was studied using a dialysis method. Each dialysis bag (Spectrapor dialysis tubing, MWCO 3.5 kDa, Spectrum Laboratories, Rancho Dominguez, Calif.), containing 2 mL of the micellar formulation or free drug dissolved in acetone, was placed into 300 mL of distilled water maintained at 37° C. in a shaking water bath (65 rpm, Julabo SW 22 shaking water bath, Seelbach, Germany). At selected time intervals, aliquots of 200 μL from the inside of the dialysis bag were collected. The amount of PNKP inhibitor was analyzed using a Varian Prostar 210 HPLC system. Reversed phase chromatography was carried out with a Microsorb-MV 5 μm C18-100 Å column (4.6 mm×250 mm) with 20 μL of sample injected and eluted under isocratic conditions with a solution of 0.1% trifluroacetic acid/acetonitrile (1:1 v/v) at a flow rate of 1.0 mL/min at room temperature.

For data set [13], the system named is HCT116 wild type (wt) and PTEN knockout colorectal cells xenograft tumours. Briefly: Subcutaneous xenograft tumour response. It is filed as in vivo. The settings on record: NIHIII mice, intravenous, three times 2 days apart, free or encapsulated. The protocol: In FIG. 32, we have injected 500,000 HCT116 colorectal cancer cells subcutaneously in the right flank of NIHIII mice. […] Tumour volume was then calculated from the measurement of tumour dimensions and used to plot change in tumour volume over time.

In data set [14] the test system is HCT116 PNKP-knock out cells. In words: Clonogenic survival assay, radio/chemosensitization in PNKP knock-out cells. It is filed as cell-based, human. The settings on record: free or encapsulated. On the procedure:
as §4

A further data set concerns the target EGFR (Homo sapiens (Human), UniProt P00533). The settings on record: read-out: dissociation constant; cited from earlier work.

Several values for one entry are separate records, joined by “and”; a condition that tells them apart may be missing. Identical values can stand only once. Like-named read-outs stand apart in the source and are kept apart here.

Sequence of murine PNKP (Q9JLV6 whole entry): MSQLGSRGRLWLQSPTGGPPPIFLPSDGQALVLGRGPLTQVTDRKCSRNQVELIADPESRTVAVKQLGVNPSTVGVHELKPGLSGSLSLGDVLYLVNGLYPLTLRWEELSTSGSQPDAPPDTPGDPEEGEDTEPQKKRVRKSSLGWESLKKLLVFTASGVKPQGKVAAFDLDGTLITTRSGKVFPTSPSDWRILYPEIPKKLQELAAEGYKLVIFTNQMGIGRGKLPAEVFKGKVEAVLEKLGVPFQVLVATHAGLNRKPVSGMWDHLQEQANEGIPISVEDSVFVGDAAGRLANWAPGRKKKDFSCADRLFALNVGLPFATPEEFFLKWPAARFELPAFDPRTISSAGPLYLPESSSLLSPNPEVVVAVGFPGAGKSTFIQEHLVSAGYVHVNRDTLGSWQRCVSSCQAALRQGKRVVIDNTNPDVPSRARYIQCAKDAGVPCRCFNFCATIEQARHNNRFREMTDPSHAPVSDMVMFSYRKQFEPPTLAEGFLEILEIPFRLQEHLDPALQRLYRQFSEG

With `CCCCCCCCCC[C@@H](O)[C@H]1C=CC2C(=O)N(c3ccccc3)C(=O)[C@H]2N1Nc1ccc([N+](=O)[O-])cc1` (stereo in doubt) [Compound A12B4C3, 2-(1-hydroxyundecyl)-1-(4-nitrophenylamino)-6-phenyl-6,7a-dihydro-1H-pyrrolo[3,4-b]pyridine-5,7(2H, 4aH)-dione], the specificity entry in data set [1] was “specificity for PNKP”. Also, the “sensitization to γ-radiation and camptothecin” value in data set [2] and in [4] was “able to sensitize” throughout. Further, the “sensitization to irradiation by carbon ions” value in data set [3] is given as “sensitizes”. For the same molecule, the “sensitization of PNKP-down-regulated cells” value in data set [5] is listed as “failed to sensitize”. For the same molecule, the cytotoxicity entry in data set [6] is on record as “low cytotoxicity”. Also, the Kd on PNKP [7] is 370 nM; at PNKP [8] it was 340 nM. The “inhibition of murine PNKP” value on murine PNKP is reported as “only slightly reduced efficacy”. Further, the IC50 against PNKP [9] turned out to be 14000 nM. Moreover, the “sensitization to Auger electron-emitting radioimmunoconjugate” value with myeloid leukemia cells was “sensitizes”.
As for `CCCCCCCCCC[C@@H](O)[C@@H]1C=CC2C(=O)N(c3ccc(N4CCNCC4)cc3)C(=O)[C@H]2N1Nc1ccc([N+](=O)[O-])cc1` (some centres unmarked) [Compound A12B4C50], the water solubility result in “Solubility” is given as “low water solubility”. Moreover, in the data set with HCT116 PTEN−/− cells, the “level at which encapsulated inhibitor induced synthetic lethality” value was 4 µM. The “toxicity to HCT116 PTEN+/+ cells” value in the data set with HCT116 PTEN+/+ cells is “showed toxicity”. In addition, the “usable concentration in clonogenic survival assays (not affecting cell growth)” value with HCT116 cells [10] is not above 5 µM. Also, the “concentrations at which cell growth was affected” value with HCT116 cells [10] (free and encapsulated, 72 h) is more than 5 µM. Also, in the data set with HCT116 cells [11], the “level at which encapsulated inhibitor sensitized HCT116 cells to radiation and irinotecan” value is 4 µM.
Regarding `O=C1C2C=C[C@H]([C@H](O)c3ccc(Br)cc3)N(Nc3ccc([N+](=O)[O-])cc3)[C@@H]2C(=O)N1c1ccccc1` (some centres unmarked) [Compound A44B4C3], the “solubility compared with A12B4C3” value in “Solubility” is “more soluble”.
As to `COc1ccccc1[C@@H](O)[C@H]1C=CC2C(=O)N(c3ccccc3)C(=O)[C@H]2N1Nc1ccc([N+](=O)[O-])cc1` (some centres unmarked) [Compound A83B4C3], the “solubility compared with A12B4C3” value in the data set “Solubility” is recorded as “more soluble”.
For `COc1ccccc1C(O)C1C=CC2C(=O)N(Cc3cccc4ccccc34)C(=O)C2N1Nc1ccc([N+](=O)[O-])cc1` (centres unmarked) [Compound A83B4C63, 2-[hydroxy(2-methoxyphenyl)methyl]-6-(naphthalen-1-ylmethyl)-1-[(4-nitrophenyl)amino]2H,4aH,7aH-pyrrolo[3,4-b]pyridine-5,7-dione], the “drug released from the dialysis bag” value in data set [12] (free drug, within 6 h, 37° C.) is recorded as 59.4%. Besides, the drug released in data set [12] (from PEO-b-PBCL micelles, within 6 h, 37° C.) amounted to 30.6%; in data set [12] (from PEO-b-PCL micelles, within 6 h, 37° C.), 66.5%. Moreover, in [12] (from PEO-b-PCL formulations, within 24 h), the drug release was 84.2%. Also, in [12] (from respective optimum micelles (PEO-b-PCCL for A12B4C50, PEO-b-PBCL for A83B4C63), within 24 h), the cumulative release was 48% and 48.2%. The water solubility result in “Solubility” is “low water solubility”. For the same molecule, in data set [13], the “tumour volume response, PTEN positive versus PTEN negative tumour model” value is given as “not as effective in the PTEN positive tumour model as it is in the PTEN negative tumour model”. Further, in data set [14], the “sensitization of HCT116 PNKP-knock out cells to radiation or irinotecan” value is given as “failed to further sensitize”. Moreover, the “synthetic lethality in HCT116 PTEN−/− cells” value in the data set with HCT116 PTEN−/− cells (9-14 days treatment) is “more specifically toxic to PTEN-deficient cells than A12B4C50”. In addition, the “level at which encapsulated inhibitor induced synthetic lethality” value with HCT116 PTEN−/− cells came to 4 µM. Further, the “usable concentration in clonogenic survival assays (not affecting cell growth)” value with HCT116 cells [10] is less than 20 µM. Further, the “level at which encapsulated inhibitor sensitized HCT116 cells to radiation and irinotecan” value in the data set on HCT116 cells [11] turned out to be 6 µM.
Consider YHWYGYTPQNVI [GE11], for which, in the data set with EGFR, the Kd is approximately 22 nM.
